Experiment: 12 week lifestyle plus metformin intervention in IFG subjects
Type: in vivo, human
Conditions: 12 weeks lifestyle + metformin 2 g/day, 33 IFG subjects
Source text: 33 subjects with IFG underwent a 12 week intervention including both lifestyle (diet and exercise) changes and drug (metformin, dose: 2 g/day) therapy. At baseline, this study was 49% female with a mean age of 54 and mean BMI of 30.9.

CN(C)C(=N)N=C(N)N [metformin]
% Decrease from baseline, 2hPG: 13.0% | % Decrease from baseline, FPG: 9.4% | % Decrease from baseline, Weight: 6.8%
